This is an account of results in patent publication US5607926A, “Cephalosporin antibiotics” (Microcide Pharmaceuticals, Inc., priority 1995, dated 1997).

In brackets after ≈: the same amount, converted by molar mass. Where two headings read alike, the source gives them in different places.

One test deals with E. coli ATCC 25922. The test can be described thus: In vitro antibacterial evaluation, MIC by agar dilution, E. coli ATCC 25922. The class given is cell-based. Particulars: Escherichia coli, ATCC25922, read-out: MIC. A digest of the protocol:
(§1)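 Minimum inhibitory concentrations came from the NCCLS agar dilution method in Mueller-Hinton agar. Each isolate received about 10^4 cfu per spot, and plates were read after 16-20 hours at 35°-36° C.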

For another test, the system named is S. haemolyticus (Meth^R). As to the kind of experiment: In vitro antibacterial evaluation, MIC by agar dilution, S. haemolyticus. The class given is cell-based. As to conditions: Staphylococcus haemolyticus, read-out: MIC. The method, boiled down:
as §1
In general terms: In agar dilution, organisms are placed on agar that contains the substance at set levels.

Another test deals with P. aeruginosa ATCC 27853. As to the kind of experiment: In vitro antibacterial evaluation, MIC by agar dilution, P. aeruginosa ATCC 27853. Particulars: Pseudomonas aeruginosa, ATCC27853, read-out: MIC. The class given is cell-based. The method, boiled down:
as §1

For test [1], the system named is S. aureus 76 (Meth^R)(lac^+). The test can be described thus: In vitro antibacterial evaluation, MIC by agar dilution, S. aureus 76. The class given is cell-based. As to conditions: Staphylococcus aureus, read-out: MIC. A digest of the protocol:
as §1

A further test deals with E. faecium ATCC 35667. The test can be described thus: In vitro antibacterial evaluation, MIC by agar dilution, E. faecium ATCC 35667. The class given is cell-based. As to conditions: Enterococcus faecium, ATCC35667, read-out: MIC. The method, boiled down:
as §1

For the next test, the system named is E. faecalis ATCC 29212. The test can be described thus: In vitro antibacterial evaluation, MIC by agar dilution, E. faecalis ATCC 29212. The class given is cell-based. As to conditions: Enterococcus faecalis, ATCC29212; E. faecalis ATCC 29212; read-out: MIC. A digest of the protocol:
as §1

Test [2] deals with S. aureus Col8A (Meth^S)(lac^-). As to the kind of experiment: In vitro antibacterial evaluation, MIC by agar dilution, S. aureus Col8A. Format: cell-based. Particulars: Staphylococcus aureus. A digest of the protocol: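 Agar dilution per NCCLS (1991): two-fold dilutions from 128 μg/mL down to ≤0.25 μg/mL in Mueller-Hinton agar, each level in duplicate. Spots of about 10^4 cfu of log-phase culture; 16-20 h at 35°-36° C. MIC in μg/ml is the lowest concentration inhibiting growth.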

The subject of test [3] is X. maltophilia ATCC 13637. As to the kind of experiment: In vitro antibacterial evaluation, MIC by agar dilution, X. maltophilia ATCC 13637. The class given is cell-based. Particulars: Stenotrophomonas maltophilia, ATCC13637. Here is the method: The compounds of the invention were evaluated against several β-lactamresistant bacteria strains by determining the minimum inhibitory concentration (MIC, μg/ml) of each compound with respect to each strain. The MIC, the lowest concentration of antibiotic which inhibits growth of the test organism, was determined by the agar dilution method.
To determine the MIC for bacterial isolates, the test compound was incorporated in a series of two-fold dilutions into liquified Mueller-Hinton agar. Upon solidification, a number of different bacterial strains were spot inoculated with a replicating device onto the agar surface. […] The procedures used in these studies have been standardized by the National Committee for Clinical Laboratory Standards (NCCLS), as per the NCCLS publication entitled METHODS FOR DILUTION ANTIMICROBIAL SUSCEPTIBILITY TESTS (1991), which is incorporated herein by reference.
Aliquots of antimicrobial agents were prepared in phosphate buffered saline (PBS) at pH 7.2. Tween 20 or DMSO was used as a solubilizing vehicle as needed. Standard methods of vortexing, sonicating and gentle heat were used to facilitate solubilizing the test agent. Typically, the concentration of the stock solution was 10× that of the highest drug concentration tested. A 1.28 mg/mL stock solution was used with a subsequent highest working concentration of 128 μg/mL. Serial two-fold dilutions were done through ≤0.25 μg/mL. Each drug level was tested in duplicate. Two-fold drug dilutions were done in sterile 50 mL tubes with a final drug volume of 5 mL. Upon the addition of 45 mL of molten agar, a 10-fold dilution resulted. Two, 25 mL. plates were then poured into 15×150 mm square Petri plates with grids and allowed to harden.
A control plate with a reference drug, either cefotaxime, vancomycin or imipenem, was used as the positive growth control. Stock concentrations of reference antibiotics were prepared and frozen at -80° C. Upon preparation, the control plates were sealed and stored in the refrigerator for up to 1 week prior to use; however, imipenem control plates had to be prepared just prior to use. All test plates were used within 24 hours of preparation.
Satisfactory results were obtained where the inoculum contained about 10^4 colony forming units (cfu) ±0.5 logs. Starting with pure cultures of the test isolates on agar plates, a few isolated colonies were transferred to a tube of nutrient broth and allowed to grow 4-6 hours at 35°-36° C. to reach log-phase growth. Dropwise addition of the broth culture to PBS was done to match a 0.5 McFarland turbidity standard equal to 10^8 cfu/mL. This was further diluted ten-fold in PBS to reach a working inoculum concentration of 10^7 cfu/mL. When 1 μL of the working inoculum was applied to the agar surface a concentration of about 10^4 cfu per spot was obtained.
Disposable sterile 1 μL loops were used to inoculate test plates, with each isolate in a designated grid on the agar plate. An alternate method of inoculation involved the use of a replica plater, a device with 48 steel pins allowing the simultaneous inoculation of multiple isolates. After the spots had dried, the plates were incubated at 35°-36° C. for 16-20 hours. Endpoints were assessed as the minimum inhibitory concentration (MIC) of antimicrobial agent.

Test [4] relates to S. epidermidis ATCC 31432. As to the kind of experiment: In vitro antibacterial evaluation, MIC by agar dilution, S. epidermidis ATCC 31432. The class given is cell-based. Particulars: Staphylococcus epidermidis, ATCC31432. A digest of the protocol:
as §1

Another test relates to S. aureus ATCC 25923. As to the kind of experiment: In vitro antibacterial evaluation, MIC by agar dilution, S. aureus ATCC 25923. Format: cell-based. Particulars: Staphylococcus aureus, ATCC25923. A digest of the protocol: as §1
For a further test, the system named is S. aureus ATCC 29213. The test can be described thus: In vitro antibacterial evaluation, MIC by agar dilution, S. aureus ATCC 29213. The class given is cell-based. Particulars: Staphylococcus aureus, ATCC29213. A digest of the protocol: as §1
Test [5] has as its system methicillinsusceptible S. aureus strain ATCC 13709. As to the kind of experiment: In vivo antibacterial evaluation, murine model for lethal bacteremic peritonitis. Details: species or system S. aureus in female Swiss-Webster mice. As to conditions: Staphylococcus aureus, ATCC13709, sc, 72 h, two equal SC doses at challenge and 2 hours later, mice, probit, read-out: ED50. The method, boiled down: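 Female Swiss-Webster mice received IP an LD100 bacterial titer in 7% hog gastric mucin, then two equal subcutaneous doses (at challenge and 2 h later) of two-fold increments of drug, range 0.01–512 mg/kg. Survival scored at 72 h; PD50 (total mg/kg) by probit, groups of 10.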

Test [6] shares this test system. The test can be described thus: Challenge strain MIC. Format: cell-based. As to conditions: Staphylococcus aureus, ATCC13709, S. aureus ATCC 13709; read-out: Challenge str MIC. A digest of the protocol: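 MIC was found by agar dilution to NCCLS standards: two-fold compound dilutions from 128 μg/mL through ≤0.25 μg/mL in Mueller-Hinton agar, each level in duplicate. Log-phase inocula of about 10^4 cfu per spot were applied. Plates were incubated 16-20 h at 35°-36° C, and the MIC was the lowest concentration inhibiting growth.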

Where [7] appears, read: S. epidermidis ATCC 31432, read-out: MIC.
[8] abbreviates: S. aureus ATCC 25923, read-out: MIC.
Setting [9] is: S. aureus ATCC 29213, read-out: MIC.

As for `O=C(Cc1ccccc1)N[C@@H]1C(=O)N2C(C(=O)O)=C(Sc3ccc(F)cc3)CS[C@H]12` [Cmpd 1, (7R)-7-[(Phenylacetyl)amino]-3-(p-fluorophenylthio)-3-cephem-4-carboxylic acid], the minimal inhibitory concentration (MIC) in the test with E. coli ATCC 25922 was more than 32 µg/mL; with S. haemolyticus (Meth^R), more than 32 µg/mL; in the test with P. aeruginosa ATCC 27853, more than 32 µg/mL; in test [1], 32 µg/mL (≈ 72 µM); in the test with E. faecium ATCC 35667, 8 µg/mL (≈ 18 µM); in the test on E. faecalis ATCC 29212 it was 2 µg/mL (≈ 4.5 µM). In addition, the minimum inhibitory concentration (MIC) in [2] is 0.03 µg/mL (≈ 0.0675 µM); in test [3], more than 32 µg/mL; in test [4] (setting [7]), less than 0.015 µg/mL; with S. aureus ATCC 25923 (setting [8]), less than 0.015 µg/mL; in the test on S. aureus ATCC 29213 (setting [9]), 0.03 µg/mL (≈ 0.0675 µM).
In the case of `O=C(Cc1ccccc1)N[C@@H]1C(=O)N2C(C(=O)O)=C(Sc3ccc4c(c3)oc3ccccc34)CS[C@H]12` [Cmpd 7, (7R)-7-[(Phenylacetyl)amino]-3-(dibenzofuranyl-3-thio)-3-cephem-4-carboxylic acid], the MIC in the test on E. coli ATCC 25922 is more than 32 µg/mL; in the test with P. aeruginosa ATCC 27853, more than 32 µg/mL; in test [1], 16 µg/mL (≈ 31 µM); in the test on E. faecalis ATCC 29212, 1 µg/mL (≈ 1.94 µM); in [2], 0.06 µg/mL (≈ 0.116 µM); in test [3], more than 32 µg/mL. The minimal inhibitory concentration (MIC) (in test [4] (setting [7]); in the test with S. aureus ATCC 25923 (setting [8]); with S. aureus ATCC 29213 (setting [9])) was less than 0.06 µg/mL in each case.
For the compound `O=C(Cc1ccccc1)N[C@@H]1C(=O)N2C(C(=O)O)=C(Sc3ccc(-c4ccccc4)cc3)CS[C@H]12` [Cmpd 8, (7R)-7-[(Phenylacetyl)amino]-3-(4-biphenylthio)-3-cephem-4-carboxylic acid], the minimum inhibitory concentration (MIC) was more than 32 µg/mL with E. coli ATCC 25922; more than 32 µg/mL in the test with P. aeruginosa ATCC 27853; more than 32 µg/mL in test [1]; 4 µg/mL (≈ 7.96 µM) in the test on E. faecalis ATCC 29212; less than 0.125 µg/mL in [2]; more than 32 µg/mL in [3]. The MIC (in test [4]; with S. aureus ATCC 25923; against S. aureus ATCC 29213) was less than 0.125 µg/mL in each case.
For `O=C(Cc1ccccc1)N[C@@H]1C(=O)N2C(C(=O)O)=C(Sc3cccc(-c4ccccc4)c3)CS[C@H]12` [Cmpd 10, (7R)-7-[(Phenylacetyl)amino]-3-(3-biphenylthio)-3-cephem-4-carboxylic acid], the minimal inhibitory concentration (MIC) was more than 32 µg/mL with E. coli ATCC 25922; more than 32 µg/mL in the test on P. aeruginosa ATCC 27853; 32 µg/mL (≈ 63.7 µM) in test [1]; 2 µg/mL (≈ 3.98 µM) in the test with E. faecalis ATCC 29212; 0.125 µg/mL (≈ 0.249 µM) in test [2]; more than 32 µg/mL in test [3]. Further, the minimum inhibitory concentration (MIC) in [4] (setting [7]) is less than 0.06 µg/mL; with S. aureus ATCC 25923 (setting [8]), less than 0.06 µg/mL; with S. aureus ATCC 29213 it was 0.125 µg/mL (≈ 0.249 µM).
As for `N#CCC(=O)N[C@@H]1C(=O)N2C(C(=O)O)=C(Sc3ccnn3-c3ccccc3)CS[C@H]12` [Cmpd 88, (7R)-7-[(Cyanoacetyl)amino]-3-(1-N-phenylpyrazol-5-ylthio)-3-cephem-4-carboxylic acid], the MIC in the test with E. coli ATCC 25922 is more than 32 µg/mL; in the test with S. haemolyticus (Meth^R) it was 16 µg/mL (≈ 36.2 µM); in the test on P. aeruginosa ATCC 27853, more than 32 µg/mL; in [1], 16 µg/mL (≈ 36.2 µM); in the test with E. faecium ATCC 35667 it was 2 µg/mL (≈ 4.53 µM); in the test on E. faecalis ATCC 29212 it was 4 µg/mL (≈ 9.06 µM). Further, the minimal inhibitory concentration (MIC) in test [2] was less than 0.25 µg/mL; in test [6] it was 0.25 µg/mL (≈ 0.566 µM); in [4], less than 0.25 µg/mL; against S. aureus ATCC 25923 it was less than 0.25 µg/mL. Besides, the ED50 in test [5] is 0.31 mg/kg.
As to `Nc1nc(/C(=N/OC2CCCC2)C(=O)N[C@@H]2C(=O)N3C(C(=O)O)=C(Sc4ccnn4-c4ccccc4)CS[C@H]23)cs1` [Cmpd 89, (7R)-7-[(Z)-2-(aminothiazol-4-yl)-2-(cyclopentyloxyimino)acetamido]-3-(1-N-phenylpyrazol-5-ylthio)-3-cephem-4-carboxylic acid], the MIC was 2 µg/mL (≈ 3.27 µM) in the test on E. coli ATCC 25922; 8 µg/mL (≈ 13.1 µM) in the test with S. haemolyticus (Meth^R); 8 µg/mL (≈ 13.1 µM) in the test on P. aeruginosa ATCC 27853; 4 µg/mL (≈ 6.54 µM) in [1]; 4 µg/mL (≈ 6.54 µM) with E. faecium ATCC 35667; 2 µg/mL (≈ 3.27 µM) with E. faecalis ATCC 29212. Further, the MIC in [2] was 0.5 µg/mL (≈ 0.817 µM); in test [6], 0.5 µg/mL (≈ 0.817 µM); in test [4] (setting [7]), less than 0.25 µg/mL; with S. aureus ATCC 25923 (setting [8]), less than 0.25 µg/mL; in the test on S. aureus ATCC 29213 (setting [9]) it was 0.5 µg/mL (≈ 0.817 µM). Moreover, in test [5], the ED50 was more than 10 mg/kg.

For orientation: MIC means the smallest concentration in the dilution series that meets the test's criterion for growth inhibition. By ED50 is commonly meant the midpoint of the dose-response relation.
